# How the values were obtained:
# [1] = test system: NR2B subunit of NMDA receptors; assay: NR2B tyrosine phosphorylation after formalin injection; type: in vivo; details: intrathecal administration; 60 minutes post-injection of formalin
# Protocol: It can be seen that by 60 minutes post-injection of formalin, tyrosine phosphorylation of the NR2B subunit increases.
# [2] = test system: NMDA receptor NR2B subunits; assay: NR2B tyrosine phosphorylation in spinal cord dorsal horn of cuffed rats; type: in vivo, rat; details: intrathecal injection of 0.02 pmol
# Excerpt: This graph represents quantification of band (from western blots) density in three experiments.
# [3] = test system: cuff-induced tactile allodynia; assay: cuff implantation tactile allodynia, paw withdrawal threshold; type: in vivo, mice
# Excerpt: Pain induced by cuff implantation, in a laboratory animal such as a rat or mouse, is an art-accepted model of neuropathic pain. Generally, in cuff implantation a nerve root in the sciatic nerve leading to a hind paw is tied off by surgical implantation of a “cuff”, for example, a polyethylene ring. Over a period of time the nerve degenerates and a neuropathic pain pattern develops. A control is created by subjecting another group of animals to “sham surgery”, a procedure wherein the animals receive the same type of surgery as cuff implantation without the physical implantation of the cuff. After a period of time, the paw is stimulated by a series of filaments or exposure to a small amount of moderate heat. Pain is measured by observation of “paw withdrawal”, in general, if the animal lifts the paw and the time it takes to do so. Typically, an animal not experiencing neuropathic pain will not respond to the stimuli. When testing using filaments, threshold is defined in terms of force. […] This testing method is described in the art; Ren Physiological Behavior 67:711-716 1999 and Guo et al. The Journal of Neuroscience 22(14):6208-6217 2002.
# In this experiment, tactile allodynia was induced in a group of mice by cuff implantation and symptoms were observed as early as day 3 post-surgery. Allodynia was allowed to fully develop at 8-10 days post-surgery before the “paw withdrawal” tests were performed. A group of mice received an intrathecal (introduced into the space under the arachnoid membrane of the brain or spinal cord) injection of 0.02 pmol of Src40-49Tat (TSUDAPI-1, SEQ ID NO:2), a second group of mice received an intrathecal injection of 0.02 pmol Scramble Src40-49Tat and a third group of mice received an intrathecal injection of saline. “Scramble Src40-49Tat” refers to TSUDAI-1 (SEQ ID NO:2) having a “scrambled” sequence, i.e. having amino acid residues out of order from the normal. Green represents Src40-49Tat (TSUDAPI-1, SEQ ID NO:2), grey represents Scramble Src40-49Tat and red represents saline. […] The reversal was significant at more than 5 hours post injection, with PWT 6.03±1.45 g (Src40-49Tat) versus 1.7±0.47 g (scrambled Src40-49Tat)(p<0.05).
# Another group of mice received an intravenous injection of 10 pmol/g of Src40-49Tat (TSUDAPI-1, SEQ ID NO:2) and a second group of mice received an intravenous injection of saline. Green represents Src40-49Tat (TSUDAPI-1, SEQ ID NO:2) and red represents saline. […] The anti-allodynic effect of the peptide (SEQ ID NO:2) peaked at 2 hours following injection, with PWT 9.28±2.55 g (Src40-49Tat) versus 1.95±0.617 g (saline) (p<0.05).
# [4] = test system: 2.5% formalin-induced flinching or biting/licking behaviors; assay: formalin test (inflammatory pain); type: in vivo, rat; details: 0.1 pmol intravenously 45 minutes before testing; compared to HIV-Tat alone and saline; over an hour
# Protocol: Male Sprague-Dawley rats 150-200 g were used for all experiments. Rats were housed in pairs, maintained on a 12/12 hour light/dark cycle, and allowed free access to food and water. All experiments were conducted during 10 am and […]. Peptide Src40-49Tat (TSUDAPI-1; SEQ ID NO:2) or Tat alone (amino acid residues 1-11 of SEQ ID NO:2) was dissolved in sterilized saline. Peptide or saline was injected intravenously at a volume 1 ml/Kg into rat's tail 45 minutes before behavioral testing. Injections were done under brief halothane anesthesia and rats were returned to the cages after injections. The formalin test was performed as previously described (Liu et al. European Journal of Pharmacology 408(2):143-152 2000). Rats were placed in a plexiglass observation chamber for an initial 20 minutes to allow acclimatization to the testing environment. Formalin 2.5% was injected subcutaneously in a volume of […] into the plantar aspect of the hind paw. Following injections, rats were returned to the observation chamber and monitored for flinching behaviors (lifting, shaking and overt flinching with a ripple over the haunch) and biting/licking time. […] Recorded episodes were not corrected, thus values represent about half of the total behaviors expressed. FIGS. 7A-D show the effect of Src40-49Tat (0.1 pmol) on 2.5% formalin induced flinching or biting/licking behaviors. […]
# cuff-induced allodynia = cuff-induced allodynia in wild-type and Src kinase null mice, paw withdrawal threshold; type: in vivo; details: 100 pmol intravenous injection
# Excerpt: Pain induced by cuff implantation, in a laboratory animal such as a rat or mouse, is an art-accepted model of neuropathic pain. Generally, in cuff implantation a nerve root in the sciatic nerve leading to a hind paw is tied off by surgical implantation of a “cuff”, for example, a polyethylene ring. Over a period of time the nerve degenerates and a neuropathic pain pattern develops. A control is created by subjecting another group of animals to “sham surgery”, a procedure wherein the animals receive the same type of surgery as cuff implantation without the physical implantation of the cuff. After a period of time, the paw is stimulated by a series of filaments or exposure to a small amount of moderate heat. Pain is measured by observation of “paw withdrawal”, in general, if the animal lifts the paw and the time it takes to do so. Typically, an animal not experiencing neuropathic pain will not respond to the stimuli. When testing using filaments, threshold is defined in terms of force. […] This testing method is described in the art; Ren Physiological Behavior 67:711-716 1999 and Guo et al. The Journal of Neuroscience 22(14):6208-6217 2002. Another experiment was performed to compare cuff-induced allodynia in wild-type mice to Src kinase null mice (Src kinase knock-out mice). The PWT was tested in the mice prior to surgery. […]
# NR2B subunit = assay: nerve-injury induced phosphorylation of NR2B in Src kinase null mice; type: in vivo
# [5] = intravenous injection of 10 pmol/g
substance,measurement,setting,value
"Src40-49Tat: SUDAPI-1 combined with the carrier peptide, HIV-Tat (SEQ ID NO:2) (YGRKKRRQRRRKPASADGHR; listed as Homo sapiens)",formalin-induced increase of NR2B tyrosine phosphorylation,[1],significantly reduced
same,increase in tyrosine phosphorylation of NR2B subunits in spinal cord dorsal horn,[2],significantly reversed
same,PWT,"[3]; intrathecal 0.02 pmol, more than 5 hours post injection",6.03 ± 1.45 g
same,onset of the reversal effect,[3]; intrathecal injection of 0.02 pmol,as early as one hour
same,reversal of allodynia,"[3]; intrathecal injection of 0.02 pmol, 8-10 days post-surgery",significantly reversed allodynia
same,PWT,"[3]; intravenous 10 pmol/g, 2 hours following injection",9.28 ± 2.55 g
same,onset of the reversal effect,[3]; [5],as early as one hour
same,reversal of allodynia,[3]; [5],significantly reversed allodynia
same,time of peak anti-allodynic effect following injection,[3]; [5],2 h
same,pain behaviors in the formalin test,[4],reduce pain behaviors
same,PWT in null mice,cuff-induced allodynia; Src kinase null mice,did not further increase
same,PWT after treatment,"cuff-induced allodynia; wild-type mice, from 0.008±0.0 g before",0.23 ± 0.05 g
same,phosphorylation of NR2B subunits,NR2B subunit,did not further decrease

# From patent publication US8003609B2, “Method for ameliorating pain by modification of NMDA receptors through inhibition of Src” (The Hospital for Sick Children, priority 2004, dated 2011)
